{"source": "patent US20080167571A1", "about": "“DETERMINATION OF TREATMENT RESULTS PRIOR TO TREATMENT OR AFTER FEW TREATMENT EVENTS” (priority 2006, published 2008)", "key": {"[1]": {"assay": "Post-drug EEG and subjective scale measures (LDA neurocognitive drug response score)", "format": "in vivo, healthy adult volunteers", "details": "post-drug vs non-drug baseline", "description": "Using the data and methods described in Example 1, we determined how a combination of post-drug EEG and the subject's subjective scale measures quantifies the response to carbamazepine. Accordingly, a stepwise linear discriminant analysis (LDA) was used to generate a neurocognitive drug response score for each subject, reflecting the magnitude of neurocognitive response to the drug as compared with the non-drug baseline. The sensitivity and specificity in detecting the effect of the drug were both 100%. Three variables were used in the LDA, of which two were EEG and one was a subjective scale measure. The EEG variables were occipito-parietal 2-10 Hz EEG power in all tasks (relative weight 0.6) which increased consequent to CBZ, peak alpha frequency in all tasks (relative weight 0.3) which decreased consequent to CBZ, and self-reported fatigue rating on the Profile of Mood Scale (POMS, Jacobson et al., 1978) (relative weight 0.3) which increased consequent to CBZ."}, "[2]": {"assay": "Symbol Digits Modality Test (SDMT) after taking CBZ", "format": "in vivo, healthy adult volunteers", "description": "The SDMT is a standard neuropsychological test of “executive function” and includes complex scanning, visual tracking, and agility components. These non-drug baseline values of task performance, EEG, and evoked potential variables that were most sensitive to the effects of CBZ were used as candidate independent predictor variables. Stepwise multiple linear regression analysis was used to identify which of these candidate independent predictor variables at baseline best predicted the change in the SDMT after taking CBZ."}, "[3]": {"assay": "Neuropsychological and neurophysiological testing of AEDs, double-blind randomized two period crossover", "format": "in vivo, healthy adult volunteers", "description": "The purpose of the underlying study was to evaluate the neuropsychological and neurophysiological effects of the AED carbamazepine (CBZ), and the AED levitiracetam (LEV) in healthy subjects, employing a double-blind, two period crossover design (Meador et al., 2007). In accordance with the present invention, data at non-drug baseline sessions predicted which subjects would have the most negative effects of CBZ.\nA total of 28 healthy adult volunteers without history of neurological or psychiatric diseases completed the protocol (17 women; 11 men; mean age=33 years, range=18-51). All subjects remained free of centrally active prescription medications throughout the study.\nThe study employed a double-blind, randomized, two period crossover design. Subjects were screened and tested at the non-drug baseline.\nSubsequently, they were randomly assigned to receive either AED. Each AED was administered over eight weeks, which included a titration period and a one month maintenance period. Each AED treatment period was followed by a four day taper and a washout period for the remainder of the four weeks. Then, subjects were treated with the other AED for eight weeks followed by a final four week washout period.\nCBZ was given at 200 mg/day for the first week, 200 mg/day bid for the 2nd week, then adjusted to midrange anticonvulsant blood levels (ABLs) at tid dosages. LEV was begun at 500 mg/day for two weeks, then increased to 500 mg bid for two weeks, then increased to 1000 mg bid.\nSubjects underwent neuropsychological and neurophysiological testing on six occasions (i.e., two AED conditions and four non-drug conditions) over 25 weeks. Test sessions occurred at week one before drug administration, at week nine after four weeks of titration and maintenance on the first drug for four weeks, at week 21 after 4 weeks of wash out, 4 weeks of titration on drug 2 and 4 weeks maintenance on drug 2, and at week 25 after 4 weeks of washout.\nPatient data was obtained in accordance with procedures set forth in U.S. Pat. Nos. 6,947,790; 6,434,419 and 5,295,491; in this embodiment EEG data was obtained simultaneously with the subject taking a test battery of attention demanding tasks, for example a set of psychometric tasks.\nData was obtained from a verbal episodic memory task consisting of a word presentation phase, during which subjects had to indicate whether each word contained 1 or 2 syllables, and a delayed recognition phase in which subjects had to indicate whether each word had been presented earlier. A working memory task was presented in between these two phases, and acted as a distracter task. During the first repetition of this sequence, the working memory task was a low-load 1-back task, and during the second repetition, the working memory task was a high-load 2-back task. A number of standard neuropsychological and subjective rating scales were also administered. Test sessions lasted about an hour."}, "[4]": {"assay": "EEG with 1-back working memory task during methylphenidate dose titration in pediatric ADHD", "format": "in vivo, patients diagnosed with ADHD", "method": "Fourteen patients diagnosed with ADHD and clinically classified by a physician specialist in ADHD as MPH-responders (patients who would benefit from taking MPH) completed the protocol (11 males, 3 females; age range 8-18, mean 11.3, standard deviation 3.1). All patients weighed more than 25 kg.\nPatients received one week each of placebo (0 mg), 5 mg, 10 mg, 15 mg, and 20 mg daily doses of MPH for a total of five weeks, according to a fully counterbalanced, placebo-controlled, double-blind design. In this example EEG data was obtained concurrent with selected attention demanding tasks. […] Accordingly, an EEG computer-based examination was obtained simultaneously with the subject taking a test battery of attention demanding tasks, for example a set of psychometric tasks. Such data was obtained once a week, 1-3 hours post-ingestion of the prescribed dose for that week. Examinations were administered approximately the same time of day and on the same day of the week during the dose titration period. The protocol used in this study included a low-load simple reaction time task (SRT) task and a higher-load 1-back working memory (WM) task in sessions lasting about half an hour.\nAnalysis focused on the 1-back working memory task whose performance and EEG signals were most affected by MPH A divergence-based multivariate feature selection and pattern classification algorithm (for convenience called the neuroworkload meter—Gevins and Smith, 2003; Smith, Gevins, et al, 2001) was employed to choose and weight an optimal subset of features to characterize the MPH response.\nA set of candidate 1-back WM performance and attention-sensitive EEG features most affected by varying MPH doses was selected based on the prior statistical analyses of the average of the MPH doses followed by visual inspection of the grand averaged EEG power spectra and evoked potential data. Feature subsets were limited to a maximum of four variables because of the small number of subjects in the experiment. […]"}, "[5]": {"details": "in vivo; cited from earlier work"}}}
{"smiles": "NC(=O)N1c2ccccc2C=Cc2ccccc21", "note": "[CBZ, carbamazepine]", "values": [{"measurement": "occipito-parietal 2-10 Hz EEG power in all tasks", "setting": "[1]", "value": "increased"}, {"measurement": "peak alpha frequency in all tasks", "setting": "[1]", "value": "decreased"}, {"measurement": "self-reported fatigue rating on the Profile of Mood Scale (POMS)", "setting": "[1]", "value": "increased"}, {"measurement": "subjects with a decline in SDMT score of at least 15%", "setting": "[2]; 28 subjects", "value": "Six of the 28 subjects"}, {"measurement": "average decline in SDMT", "setting": "[2]; actual, across the 28 subjects, p<0.0003", "value": 6.7, "unit": "%"}, {"measurement": "variables worse compared to the non-drug average", "setting": "[3]; CBZ 36 of 55, LEV 4 of 33", "value": 65, "unit": "%"}, {"measurement": "low frequency (<10 Hz) EEG power", "setting": "[3]; after one month maintenance", "value": "increase"}]}
{"smiles": "CC[C@@H](C(N)=O)N1CCCC1=O", "note": "[LEV, levetiracetam]", "values": [{"measurement": "untoward neuropsychological and neurophysiological effects", "setting": "[3]; in vivo", "value": "fewer untoward neuropsychological and neurophysiological effects than did CBZ"}, {"measurement": "variables with significant differences between the AEDs, all in favor of LEV", "setting": "[3]; in vivo", "value": 42, "unit": "%"}, {"measurement": "variables worse compared to the non-drug average", "setting": "[3]; in vivo", "value": 12, "unit": "%"}]}
{"smiles": "COC(=O)C(c1ccccc1)C1CCCCN1", "note": "(stereo not drawn) [MPH, methylphenidate]", "values": [{"measurement": "dose-response relationship across patients", "setting": "[4]; 0, 5, 10, 15, 20 mg daily, one week each", "value": "did not reveal any systematic dose-response relationship"}, {"measurement": "effect size (Cohen's d) of four-variable equation score", "setting": "[4]; 20 mg vs placebo", "value": 2.12}, {"measurement": "effect size (Cohen's d), dose with the highest score vs placebo", "setting": "[4]; two-dose test analysis", "value": 3.43}]}
{"smiles": "CC1(C)O[C@@H]2[C@@H](CO[C@@]3(COS(N)(=O)=O)OC(C)(C)O[C@@H]23)O1", "note": "[topiramate]", "values": [{"measurement": "2-6 Hz EEG power", "setting": "[5]", "value": "increased"}, {"measurement": "working memory task performance", "setting": "[5]", "value": "adversely affected"}]}
